Reference: patent publication US4113855A, “Composition of matter and process” (The Upjohn Company, priority 1977, dated 1978)

Columns and labels:
Bacillus subtillis = experiment: standard disc plate assay (12.7 mm assay discs); assay type: cell-based; settings: 1 mg/ml, 12.7 mm discs
Pseudomonas mildenbergii = experiment: standard disc plate assay (12.7 mm assay discs); assay type: cell-based; settings: 1 mg/ml, 12.7 mm discs
[1] = system: Klebsiella pneumoniae UC 57; experiment: microplate broth dilution assay using nutrient broth; assay type: cell-based
From the text: (§1) On testing antibiotic 354 by a microplate broth dilution assay using nutrient broth the following spectrum was observed.

[2] = system: Klebsiella pneumoniae UC 58; experiment: as above; assay type: cell-based
From the text: as §1

Proteus mirabilis = experiment: as above; assay type: cell-based
From the text: as §1

[3] = system: Salmonella schottmuelleri UC 126; experiment: as above; assay type: cell-based
From the text: as §1

Salmonella typhi = experiment: as above; assay type: cell-based
From the text: as §1

[4] = system: Serratia marcescens UC 131; experiment: as above; assay type: cell-based
From the text: as §1

[5] = system: Staphylococcus aureus UC 76; experiment: as above; assay type: cell-based
From the text: as §1

[6] = system: Streptococcus fecalis UC 694; experiment: as above; assay type: cell-based
From the text: as §1

[7] = system: P. aeruginosa Strain No. 6429; experiment: standard agar disc plate assay using 6.35 mm paper discs; assay type: cell-based, Pseudomonas aeruginosa; settings: for Zones of Inhibition: strain 6429, 0.03 ml of 1 mg/ml per 6.35 mm disc; for zone of inhibition at 1000 µg/mL: Pseudomonas aeruginosa, read-out: Zones of Inhibition
[8] = system: P. aeruginosa Strain No. 6430; experiment: as above; assay type: cell-based, Pseudomonas aeruginosa; settings: for Zones of Inhibition: strain 6430, 0.03 ml of 1 mg/ml per 6.35 mm disc; for zone of inhibition at 1000 µg/mL: Pseudomonas aeruginosa, read-out: Zones of Inhibition
[9] = system: P. aeruginosa Strain No. 6431; experiment: as above; assay type: cell-based, Pseudomonas aeruginosa; settings: for Zones of Inhibition: strain 6431, 0.03 ml of 1 mg/ml per 6.35 mm disc; for zone of inhibition at 1000 µg/mL: Pseudomonas aeruginosa, read-out: Zones of Inhibition
[10] = system: P. aeruginosa Strain No. 6433; experiment: as above; assay type: cell-based, Pseudomonas aeruginosa; settings: for Zones of Inhibition: strain 6433, 0.03 ml of 1 mg/ml per 6.35 mm disc
[11] = system: P. aeruginosa Strain No. 6434; experiment: as above; assay type: cell-based, Pseudomonas aeruginosa; settings: for Zones of Inhibition: strain 6434, 0.03 ml of 1 mg/ml per 6.35 mm disc; for zone of inhibition at 1000 µg/mL: Pseudomonas aeruginosa, read-out: Zones of Inhibition
[12] = system: P. aeruginosa Strain No. 6435; experiment: as above; assay type: cell-based, Pseudomonas aeruginosa; settings: for Zones of Inhibition: strain 6435, 0.03 ml of 1 mg/ml per 6.35 mm disc; for zone of inhibition at 1000 µg/mL: Pseudomonas aeruginosa, read-out: Zones of Inhibition
[13] = system: P. aeruginosa Strain No. 6436; experiment: as above; assay type: cell-based, Pseudomonas aeruginosa; settings: for Zones of Inhibition: strain 6436, 0.03 ml of 1 mg/ml per 6.35 mm disc; for zone of inhibition at 1000 µg/mL: Pseudomonas aeruginosa, read-out: Zones of Inhibition
[14] = system: P. aeruginosa Strain No. 6429; experiment: nutrient broth dilution test; assay type: cell-based, Pseudomonas aeruginosa; settings: strain 6429; 32° C., 18 hours
Procedure: (§2) Antibiotic 354 was also tested on a nutrient broth dilution test against the same Pseudomonas strains listed above. The test tubes were incubated at 32° C. for 18 hours.

[15] = system: P. aeruginosa Strain No. 6430; experiment: nutrient broth dilution test; assay type: cell-based, Pseudomonas aeruginosa; settings: strain 6430; 32° C., 18 hours
Procedure: as §2

[16] = system: P. aeruginosa Strain No. 6431; experiment: nutrient broth dilution test; assay type: cell-based, Pseudomonas aeruginosa; settings: strain 6431; 32° C., 18 hours
Procedure: as §2

[17] = system: P. aeruginosa Strain No. 6433; experiment: nutrient broth dilution test; assay type: cell-based, Pseudomonas aeruginosa; settings: strain 6433; 32° C., 18 hours
Procedure: as §2

[18] = system: P. aeruginosa Strain No. 6434; experiment: nutrient broth dilution test; assay type: cell-based, Pseudomonas aeruginosa; settings: strain 6434; 32° C., 18 hours
Procedure: as §2

[19] = system: P. aeruginosa Strain No. 6435; experiment: nutrient broth dilution test; assay type: cell-based, Pseudomonas aeruginosa; settings: strain 6435; 32° C., 18 hours
Procedure: as §2

[20] = system: P. aeruginosa Strain No. 6436; experiment: nutrient broth dilution test; assay type: cell-based, Pseudomonas aeruginosa; settings: strain 6436; 32° C., 18 hours
Procedure: as §2

[21] = system: Pseudomonas mildenbergii (UC 3029); experiment: agar disc plate assay, biounits; assay type: cell-based; settings: vs. UC 3029; BU = concentration giving a 20 mm zone of inhibition
Procedure: The assay is an agar disc plate assay using the microorganism P. mildenbergii. The agar medium is buffered with 0.1 M phosphate buffer at a pH of 7.4. A unit volume (0.08 ml) of solution containing the substance to be assayed is placed on a 12.7 mm paper disc which is then placed on an agar plate seeded with the assay organism. The agar plate is then incubated for 16-18 hours at 37° C. A biounit (BU) is defined as the concentration of the antibiotic which gives a 20 mm zone of inhibition under the above assay conditions.

Gram-negative bacteria = experiment: antibacterial activity; assay type: cell-based
[22] = system: Pseudomonas aeruginosa GN-315 (UC 6149); experiment: antibacterial activity; assay type: cell-based
species of Pseudomonas = experiment: antibacterial activity; assay type: cell-based
species of Proteus = experiment: antibacterial activity; assay type: cell-based
[23] = system: Pseudomonas aeruginosa strains obtained from Bronson Hospital; experiment: antibacterial activity against hospital strains; assay type: cell-based; settings: Kalamazoo
basicity = assay type: physicochemical

Molecule: N=C1C=C[C@@]2(O)C[C@H](Cl)CN12 [Antibiotic 354]
- Zone Of Inhibition (Bacillus subtillis): 25 mm
- Zone Of Inhibition (Pseudomonas mildenbergii): 30 mm
- Minimum Inhibitory Concentration [1]: 31.2 µg/mL
- Minimum Inhibitory Concentration [2]: 7.8 µg/mL
- Minimum Inhibitory Concentration (Proteus mirabilis): 31.2 µg/mL
- Minimum Inhibitory Concentration [3]: 7.8 µg/mL
- Minimum Inhibitory Concentration (Salmonella typhi): 15.6 µg/mL
- Minimum Inhibitory Concentration [4]: 3.9 µg/mL
- Minimum Inhibitory Concentration [5]: 31.2 µg/mL
- Minimum Inhibitory Concentration [6]: 125 µg/mL
- Zones of Inhibition [7]: 22 mm
- Zones of Inhibition [8]: 33 mm
- Zones of Inhibition [9]: 22 mm
- Zones of Inhibition [10]: 21 mm
- Zones of Inhibition [11]: 20 mm
- Zones of Inhibition [12]: 24 mm
- Zones of Inhibition [13]: 22 mm
- Minimum Inhibitory Concentration [14]: 25 µg/mL
- Minimum Inhibitory Concentration [15]: 25 µg/mL
- Minimum Inhibitory Concentration [16]: 25 µg/mL
- Minimum Inhibitory Concentration [17]: 25 µg/mL
- Minimum Inhibitory Concentration [18]: 12.5 µg/mL
- Minimum Inhibitory Concentration [19]: 12.5 µg/mL
- Minimum Inhibitory Concentration [20]: 25 µg/mL
- potency in biounits [21]: 8 BU/mg
- activity against Gram-negative bacteria (Gram-negative bacteria): active
- activity / resistance, P. aeruginosa GN-315 [22]: active
- activity against species of Pseudomonas (species of Pseudomonas): very active
- activity against species of Proteus (species of Proteus): very active
- activity / resistance, Bronson Hospital P. aeruginosa strains [23]: active
- basicity (basicity): strongly basic

Molecule: NC[C@H]1O[C@H](O[C@H]2[C@H](O)[C@@H](O[C@H]3O[C@H](CO)[C@@H](O)[C@H](N)[C@H]3O)[C@H](N)C[C@@H]2N)[C@H](O)[C@@H](O)[C@@H]1O [Kanamycin]
- zone of inhibition at 1000 µg/mL [7]: 11 mm
- zone of inhibition at 1000 µg/mL [8]: 11 mm
- zone of inhibition at 1000 µg/mL [9]: 0 mm
- Zones of Inhibition [10]: trace
- zone of inhibition at 1000 µg/mL [11]: 13 mm
- zone of inhibition at 1000 µg/mL [12]: 0 mm
- zone of inhibition at 1000 µg/mL [13]: 0 mm
- activity / resistance, P. aeruginosa GN-315 [22]: resistant
- activity / resistance, Bronson Hospital P. aeruginosa strains [23]: relatively resistant

Molecule: CCn1cc(C(=O)O)c(=O)c2ccc(C)nc21 [Nalidixic Acid]
- zone of inhibition at 1000 µg/mL [7]: 13 mm
- zone of inhibition at 1000 µg/mL [8]: 13 mm
- zone of inhibition at 1000 µg/mL [9]: 12 mm
- zone of inhibition at 1000 µg/mL ([10]; Pseudomonas aeruginosa, read-out: Zones of Inhibition): 13 mm
- zone of inhibition at 1000 µg/mL [11]: 13 mm
- zone of inhibition at 1000 µg/mL [12]: 17 mm
- zone of inhibition at 1000 µg/mL [13]: 13 mm
- activity / resistance, P. aeruginosa GN-315 [22]: resistant
- activity / resistance, Bronson Hospital P. aeruginosa strains [23]: relatively resistant

Molecule: Gentamycin
- Zones of Inhibition [7]: 14 mm
- Zones of Inhibition [8]: 14 mm
- Zones of Inhibition [9]: trace
- Zones of Inhibition [10]: 11 mm
- Zones of Inhibition [11]: 22 mm
- Zones of Inhibition [12]: 13 mm
- Zones of Inhibition [13]: 9 mm
- activity / resistance, P. aeruginosa GN-315 [22]: resistant
- activity / resistance, Bronson Hospital P. aeruginosa strains [23]: relatively resistant

Molecule: Polymyxin B
- Zones of Inhibition [7]: trace
- Zones of Inhibition [8]: trace
- Zones of Inhibition [9]: trace
- Zones of Inhibition [10]: trace
- Zones of Inhibition [11]: trace
- Zones of Inhibition [12]: trace
- Zones of Inhibition [13]: 9 mm
- activity / resistance, Bronson Hospital P. aeruginosa strains [23]: relatively resistant
